Test results: paper PMC12797502, “Effects of emodepside on single-channel properties of Onchocerca volvulus SLO-1A (BK) potassium channels” (Parasites & Vectors, 2025)

Target: T1, Ovo-SLO-1A (Onchocerca volvulus, UniProt A0A2K6W0E9)
T1 construct: T2A-linked GFP as transfection marker; homotetramer; Ala350 printed in S6 (natural residue)
Test: inside-out and whole-cell patch clamp, transfected HEK293 cells
Type: biochemical
Details: activator; 0.3 µM (inside-out, +20 mV, 100 µM free Ca2+, bath pH 7.2) or 1 µM (whole-cell, +20 mV); room temperature; empty-vector control

T1 sequence (A0A2K6W0E9 1-1119): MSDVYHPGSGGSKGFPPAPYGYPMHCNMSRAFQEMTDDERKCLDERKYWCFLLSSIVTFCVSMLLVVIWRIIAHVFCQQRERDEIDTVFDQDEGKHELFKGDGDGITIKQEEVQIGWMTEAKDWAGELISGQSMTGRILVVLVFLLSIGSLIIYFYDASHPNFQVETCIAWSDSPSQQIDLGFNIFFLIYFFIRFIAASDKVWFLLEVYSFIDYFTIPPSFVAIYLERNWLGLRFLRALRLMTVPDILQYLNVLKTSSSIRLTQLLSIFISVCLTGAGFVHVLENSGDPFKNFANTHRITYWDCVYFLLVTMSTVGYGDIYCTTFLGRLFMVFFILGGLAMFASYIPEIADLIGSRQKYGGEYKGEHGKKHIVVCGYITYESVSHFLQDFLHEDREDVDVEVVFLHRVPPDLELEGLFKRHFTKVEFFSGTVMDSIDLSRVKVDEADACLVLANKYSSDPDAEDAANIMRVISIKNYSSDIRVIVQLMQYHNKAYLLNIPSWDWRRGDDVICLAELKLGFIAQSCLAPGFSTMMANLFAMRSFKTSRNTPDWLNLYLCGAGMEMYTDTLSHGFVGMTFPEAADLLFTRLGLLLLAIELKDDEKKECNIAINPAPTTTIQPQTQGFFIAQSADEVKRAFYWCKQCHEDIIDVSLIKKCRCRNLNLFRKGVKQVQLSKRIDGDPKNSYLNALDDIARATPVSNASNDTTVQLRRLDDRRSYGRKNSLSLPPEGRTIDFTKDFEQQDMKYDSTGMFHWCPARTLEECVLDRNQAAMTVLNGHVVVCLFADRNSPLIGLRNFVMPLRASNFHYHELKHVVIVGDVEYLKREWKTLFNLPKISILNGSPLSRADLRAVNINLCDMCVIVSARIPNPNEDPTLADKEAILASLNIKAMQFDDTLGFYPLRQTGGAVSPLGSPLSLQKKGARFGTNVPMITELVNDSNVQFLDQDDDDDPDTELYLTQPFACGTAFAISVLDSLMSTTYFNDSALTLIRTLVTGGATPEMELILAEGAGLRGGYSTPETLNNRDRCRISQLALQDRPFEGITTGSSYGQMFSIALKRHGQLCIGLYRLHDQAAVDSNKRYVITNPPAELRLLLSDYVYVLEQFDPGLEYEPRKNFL

In the case of `CC(C)C[C@H]1C(=O)O[C@H](Cc2ccc(N3CCOCC3)cc2)C(=O)N(C)[C@@H](CC(C)C)C(=O)O[C@H](C)C(=O)N(C)[C@@H](CC(C)C)C(=O)O[C@H](Cc2ccc(N3CCOCC3)cc2)C(=O)N(C)[C@@H](CC(C)C)C(=O)O[C@H](C)C(=O)N1C` [Emodepside], the “inside-out and whole-cell patch clamp, transfected HEK293 cells” value is reported as “The probability of the channel being open, Popen, significantly increased”.
